Test results taken from patent publication US20130252890A1, “6,7-DIHYDRO-5H-BENZO[7]ANNULENE DERIVATIVES, PROCESS FOR PREPARATION THEREOF, PHARMACEUTICAL PREPARATIONS COMPRISING THEM, AND THE USE THEREOF FOR PRODUCTION OF MEDICAMENTS” (BAYER INTELLECTUAL PROPERTY GMBH, priority 2010, published 2013).

What follows are molecules tested against T1, oestrogen receptor (ER) (Homo sapiens, UniProt P03372) (assay: Anti-oestrogenic action in MVLN cells (inhibition of estradiol-induced luciferase)). Details: inhibition of estradiol-induced luciferase signal, value of Ex. 44 is a mean value, read-out: Antioestrogenic action in vitro: MVLN transactivation antagonism IC50.
T1 construct: These MVLN cells express, along with the functional oestrogen receptor (ER), a reporter construct; endogenous in cells; host or cells: MVLN cells (MCF7 derivative carrying a luciferase reporter construct)
T1 sequence (P03372 1-595): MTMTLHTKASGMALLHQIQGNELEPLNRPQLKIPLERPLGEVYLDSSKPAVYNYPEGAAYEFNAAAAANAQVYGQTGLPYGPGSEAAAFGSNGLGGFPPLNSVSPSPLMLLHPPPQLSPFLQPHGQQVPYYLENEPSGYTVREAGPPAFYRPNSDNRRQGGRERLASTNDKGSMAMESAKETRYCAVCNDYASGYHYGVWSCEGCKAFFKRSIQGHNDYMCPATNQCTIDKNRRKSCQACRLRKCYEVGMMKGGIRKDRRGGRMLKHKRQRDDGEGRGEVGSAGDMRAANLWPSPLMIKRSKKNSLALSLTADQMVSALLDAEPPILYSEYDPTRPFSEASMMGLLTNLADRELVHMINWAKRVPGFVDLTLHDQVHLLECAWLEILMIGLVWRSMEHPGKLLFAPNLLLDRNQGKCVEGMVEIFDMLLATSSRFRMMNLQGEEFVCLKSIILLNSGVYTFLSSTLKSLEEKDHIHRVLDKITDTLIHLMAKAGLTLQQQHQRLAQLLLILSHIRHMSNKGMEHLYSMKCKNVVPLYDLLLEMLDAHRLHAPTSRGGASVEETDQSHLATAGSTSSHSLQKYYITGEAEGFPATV
Type: cell-based
In short: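 MVLN cells, MCF7 breast cancer derivatives carrying functional ER plus an ER-activated luciferase reporter, were treated with compounds in the presence of estradiol. Anti-oestrogenic activity taken as inhibition of the estradiol-induced luciferase signal.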
In the case of `CN(CCCCCCC1=C(c2ccc(F)cc2F)CCCc2cc(O)ccc21)CCCCS(=O)(=O)CCC(F)(F)C(F)(F)F` [Example 146, 8-(2,4-Difluorophenyl)-9-[6-(methyl{4-[(3,3,4,4,4-pentafluorobutyl)sulphonyl]-butyl}amino)hexyl]-6,7-dihydro-5H-benzo[7]annulen-3-ol], the IC50 is reported as 0.015 µM. `CN(CCCCCCC1=C(c2ccccc2F)CCCc2cc(O)ccc21)CCCS(=O)(=O)CCCC(F)(F)C(F)(F)F` [Example 126] showed an IC50 of 0.009 µM. `CN(CCCCCCC1=C(c2ccc(F)cc2F)CCCc2cc(O)ccc21)CCCS(=O)(=O)CCCC(F)(F)C(F)(F)F` [Example 128, 8-(2,4-Difluorophenyl)-9-[6-(methyl{3-[(4,4,5,5,5-pentafluoropentyl)sulphonyl]propyl}amino)hexyl]-6,7-dihydro-5H-benzo[7]annulen-3-ol] gave an IC50 of 0.006 µM. In the case of `CN(CCCCCCC1=C(c2ccc(F)cc2)CCCc2cc(O)ccc21)CCCS(=O)(=O)C1CCC(F)(F)CC1` [Example 121, 9-{6-[{3-[(4,4-difluorocyclohexyl)sulphonyl]propyl}(methyl)amino]hexyl}-8-(4-fluorophenyl)-6,7-dihydro-5H-benzo[7]annulen-3-ol], the IC50 is reported as 0.041 µM. `O=S(=O)(CCCCNCCCCCCC1=C(c2ccc(F)cc2)CCCc2cc(O)ccc21)CCCC(F)(F)F` [Example 77, 8-(4-Fluorophenyl)-9-[6-({4-[(4,4,4-trifluorobutyl)sulphonyl]butyl}amino)hexyl]-6,7-dihydro-5H-benzo[7]annulen-3-ol] showed an IC50 of 0.01 µM. `CN(CCCCCCC1=C(c2ccc(F)cc2F)CCCc2cc(O)ccc21)CCCCCS(=O)(=O)CCC(F)(F)F` [Example 133, 8-(2,4-Difluorophenyl)-9-[6-(methyl{5-[(3,3,3-trifluoropropyl)sulphonyl]pentyl}amino)hexyl]-6,7-dihydro-5H-benzo[7]annulen-3-ol] was tested, and the IC50 was 0.007 µM. In the case of `CC(C)(O)CN(CCCCCCC1=C(c2cc(F)cc(F)c2)CCCc2cc(O)ccc21)CCCS(=O)(=O)CCCC(F)(F)C(F)(F)F` [Example 13, 8-(3,5-Difluorophenyl)-9-{6-[(2-hydroxy-2-methylpropyl){3-[(4,4,5,5,5-pentafluoropentyl)sulphonyl]propyl}amino]hexyl}-6,7-dihydro-5H-benzo[7]annulen-3-ol], the IC50 is reported as 0.02 µM. `CN(CCCCCCC1=C(c2ccc(F)cc2F)CCCc2cc(O)ccc21)CCCS(=O)(=O)CCC(F)(F)C(F)(F)F` [Example 145, 8-(2,4-Difluorophenyl)-9-[6-(methyl{3-[(3,3,4,4,4-pentafluorobutyl)sulphonyl]propyl}amino)hexyl]-6,7-dihydro-5H-benzo[7]annulen-3-ol] gave an IC50 of 0.022 µM. In the case of `CN(CCCCCCC1=C(c2ccc(F)cc2)CCCc2c1ccc(O)c2F)CCC[S+]([O-])CCCC(F)(F)C(F)(F)F` (stereo not drawn) [Example 42, 4-Fluoro-8-(4-fluorophenyl)-9-[6-(methyl{3-[(4,4,5,5,5-pentafluoropentyl)sulphinyl]propyl}amino)hexyl]-6,7-dihydro-5H-benzo[7]annulen-3-ol], the IC50 is reported as 0.013 µM. In the case of `CN(CCCCCCC1=C(c2ccc(F)c(F)c2)CCCc2cc(O)ccc21)CCCS(=O)(=O)CCCCC(F)(F)F` [Example 73, 8-(3,4-Difluorophenyl)-9-[6-(methyl{3-[(5,5,5-trifluoropentyl)sulphonyl]propyl}amino)hexyl]-6,7-dihydro-5H-benzo[7]annulen-3-ol], the IC50 is reported as 0.018 µM. In the case of `O=S(=O)(CCCN(CCO)CCCCCCC1=C(c2ccc(F)cc2)CCCc2cc(O)ccc21)CCCC(F)(F)C(F)(F)F` [Example 54, 8-(4-Fluorophenyl)-9-{6-[(2-hydroxyethyl){3-[(4,4,5,5,5-pentafluoropentyl)sulphonyl]propyl}amino]hexyl}-6,7-dihydro-5H-benzo[7]annulen-3-ol], the IC50 is reported as 0.027 µM. For `CN(CCCCCCC1=C(c2ccc(F)cc2)CCCc2cc(O)ccc21)CCCCS(=O)(=O)CCC(F)(C(F)(F)F)C(F)(F)F` [Example 111, 8-(4-Fluorophenyl)-9-{6-[methyl(4-{[3,4,4,4-tetrafluoro-3-(trifluoromethyl)butyl]sulphonyl}butyl)amino]hexyl}-6,7-dihydro-5H-benzo[7]annulen-3-ol], the IC50 was 0.033 µM. With `CN(CCCCCCC1=C(c2ccc(F)c(F)c2)CCCc2cc(O)ccc21)CCCCCS(=O)(=O)CCC(F)(F)F` [Example 71, 8-(3,4-Difluorophenyl)-9-[6-(methyl{5-[(3,3,3-trifluoropropyl)sulphonyl]pentyl}amino)hexyl]-6,7-dihydro-5H-benzo[7]annulen-3-ol] the IC50 was 0.056 µM. With `CN(CCCCCC1=C(c2ccc(F)cc2)CCCc2cc(O)ccc21)CCCS(=O)(=O)CCCC(F)(F)C(F)(F)F` [Example 127] the IC50 was 0.069 µM. In the case of `O=S(=O)(CCCN(CCCO)CCCCCCC1=C(c2ccc(F)cc2)CCCc2c1ccc(O)c2F)CCC(F)(F)F` [Example 62, 4-Fluoro-8-(4-fluorophenyl)-9-{6-[(3-hydroxypropyl){3-[(3,3,3-trifluoropropyl)sulphonyl]propyl}amino]hexyl}-6,7-dihydro-5H-benzo[7]annulen-3-ol], the IC50 is reported as 0.084 µM. With `O=S(=O)(CCCCN(CCO)CCCCCCC1=C(c2ccc(F)cc2)CCCc2cc(O)c(F)cc21)CCCC(F)(F)F` [Example 104, 2-Fluoro-8-(4-fluorophenyl)-9-{6-[(2-hydroxyethyl){4-[(4,4,4-trifluorobutyl)sulphonyl]butyl}amino]hexyl}-6,7-dihydro-5H-benzo[7]annulen-3-ol] the IC50 was 0.007 µM. Molecule `CN(CCCCCCC1=C(c2ccc(F)cc2)CCCc2c1ccc(O)c2F)CCCCS(=O)(=O)CCCC(F)(F)C(F)(F)F` [Example 39, 4-Fluoro-8-(4-fluorophenyl)-9-[6-(methyl{4-[(4,4,5,5,5-pentafluoropentyl)sulphonyl]butyl}amino)hexyl]-6,7-dihydro-5H-benzo[7]annulen-3-ol] has an IC50 of 0.008 µM. Work on `CN(CCCCCCC1=C(c2cc(F)cc(F)c2)CCCc2cc(O)ccc21)CCC[S+]([O-])CCCC(F)(F)C(F)(F)F` (stereo not drawn) [Example 8, 8-(3,5-Difluorophenyl)-9-[6-(methyl{3-[(4,4,5,5,5-pentafluoropentyl)sulphinyl]propyl}amino)hexyl]-6,7-dihydro-5H-benzo[7]annulen-3-ol] yielded an IC50 of 0.012 µM. `CN(CCCCCCC1=C(c2ccc(F)c(F)c2)CCCc2cc(O)ccc21)CCCC[S+]([O-])CCCC(F)(F)C(F)(F)F` (stereo not drawn) [Example 20, 8-(3,4-Difluorophenyl)-9-[6-(methyl{4-[(4,4,5,5,5-pentafluoropentyl)sulphinyl]butyl}amino)hexyl]-6,7-dihydro-5H-benzo[7]annulen-3-ol] gave an IC50 of 0.009 µM. Molecule `CN(CCCCCCC1=C(c2ccc(F)c(F)c2)CCCc2cc(O)ccc21)CCCCS(=O)(=O)CCCC(F)(F)C(F)(F)F` [Example 25, 8-(3,4-Difluorophenyl)-9-[6-(methyl{4-[(4,4,5,5,5-pentafluoropentyl)sulphonyl]butyl}amino)hexyl]-6,7-dihydro-5H-benzo[7]annulen-3-ol] has an IC50 of 0.028 µM. `CC(C)(O)CN(CCCCCCC1=C(c2ccc(F)c(F)c2)CCCc2cc(O)ccc21)CCC[S+]([O-])CCC(F)(F)F` (stereo not drawn) [Example 26, 8-(3,4-Difluorophenyl)-9-{6-[(2-hydroxy-2-methylpropyl){3-[(3,3,3-trifluoropropyl)sulphinyl]propyl}amino]hexyl}-6,7-dihydro-5H-benzo[7]annulen-3-ol] showed an IC50 of 0.028 µM.
